In article PMC8752738, “A propolis-derived small molecule ameliorates metabolic syndrome in obese mice by targeting the CREB/CRTC2 transcriptional complex” (Nature Communications, 2022):
“And” between values parts separate entries of the source, which are not always exact repeats. Equal entries are not always repeated.

Test system: tissue mRNA levels
Experiment: Quantitative PCR of tissue gene expression in treated mice
Assay type: in vivo, mouse
Parameters: key to mRNA levels Scap / mRNA levels Insig1 / mRNA levels Ldlr / mRNA levels Mttp / mRNA levels Atgl / mRNA levels Tnfaip2 / mRNA levels Rxra / mRNA levels Srebf1 / mRNA levels Ucp2: mRNA level normalized to ribosomal L32 mRNA (internal control)
Conditions: for Lxra mRNA level: Figure 7g right, APC-20, single animals
Experimental: Total RNA from cells and tissues was extracted by Trizol (Invitrogen) and reverse-transcribed into cDNA using the prime script RT reagent kit with gDNA eraser (Takara). The mRNA levels were determined using the SYBR-green PCR kit (Takara) with ABIPRISM 7900HT Sequence detector (ABI) according to the manufacturer’s protocol. The quantitative qPCR primers used in this work are listed in Supplementary Table 1. Ribosomal L32 mRNA levels were used as an internal control.

[1] = Figure 6f, CRTC2KO mice, oral APC, individual mice
[2] = Figure 6f, WT mice, oral APC, group mean, N 6
[3] = Figure 6f, WT mice, oral APC, individual mice
[4] = Figure 8b, group mean, VEH mean 1.017
[5] = Figure 8b, individual mice, relative to CT
[6] = Figure 6d, white fat (WF) tissue of DIO mice, individual animals

## CC(C)=CCc1cc(C=CC(=O)O)cc(CC=C(C)C)c1O [APC, 3,5-diprenyl-4-hydroxycinnamic acid]
[1]
  mRNA of Srebf-1c: 0.7027 and 0.8687 and 0.636 and 0.7129 and 0.563 and 0.649
  mRNA of Srebf-2: 0.9632 and 0.7439 and 0.6331 and 0.8903 and 0.6443 and 0.8216
Figure 6f, WT mice, oral APC
  mRNA of Srebf-1c, Mean Diff. APC - VEH: -0.3789
  mRNA of Srebf-2, Mean Diff. APC - VEH: -0.3018
[2]
  mRNA of Srebf-1c, Mean 1 (APC): 0.629
  mRNA of Srebf-2, Mean 1 (APC): 0.7556
[3]
  mRNA of Srebf-1c: 0.563 and 0.9627 and 0.5968 and 0.3599 and 0.5266 and 0.7651
  mRNA of Srebf-2: 0.6655 and 0.7786 and 0.6178 and 0.7571 and 0.8561 and 0.8585
Crtc2KO mice
  Lxra mRNA level: 1.153 and 0.7926 and 0.8176 and 0.4111 and 0.7938
WT mice
  Lxra mRNA level: 0.6135 and 0.274 and 0.3613 and 0.5157 and 0.4764
Figure 8b, group mean, VEH mean 1.004
  mRNA levels G6Pase, Mean of APC: 0.5682
[4]
  mRNA levels Pck1, Mean of APC: 0.584
  mRNA levels Pgc-1a, Mean of APC: 0.499
[5]
  mRNA levels G6Pase: 0.4956 and 0.4542 and 0.8275 and 0.9159 and 0.3526 and 0.3635
  mRNA levels Pck1: 0.4515 and 0.4432 and 0.8122 and 0.7784 and 0.5234 and 0.4955
  mRNA levels Pgc-1a: 0.6618 and 0.6014 and 0.6454 and 0.5396 and 0.2614 and 0.2843
Figure 6d, white fat (WF) tissue of DIO mice, group mean, Mean of VEH 0.9173
  mRNA levels ApoB, Mean of APC: 0.3598
Figure 6d, white fat (WF) tissue of DIO mice, group mean, Mean of VEH 0.9567
  mRNA levels Srebf-1c, Mean of APC: 0.3721
Figure 6d, white fat (WF) tissue of DIO mice, group mean, Mean of VEH 0.9649
  mRNA levels Acsl1, Mean of APC: 0.4379
Figure 6d, white fat (WF) tissue of DIO mice, group mean, Mean of VEH 0.976
  mRNA levels Lxra, Mean of APC: 0.6757
Figure 6d, white fat (WF) tissue of DIO mice, group mean, Mean of VEH 0.9829
  mRNA levels Cebpa, Mean of APC: 1.129
Figure 6d, white fat (WF) tissue of DIO mice, group mean, Mean of VEH 0.9868
  mRNA levels Creb, Mean of APC: 1.007
Figure 6d, white fat (WF) tissue of DIO mice, group mean, Mean of VEH 0.9898
  mRNA levels Cpt1, Mean of APC: 1.536
Figure 6d, white fat (WF) tissue of DIO mice, group mean, Mean of VEH 0.9976
  mRNA levels Pparγ, Mean of APC: 0.9616
Figure 6d, white fat (WF) tissue of DIO mice, group mean, Mean of VEH 1.005
  mRNA levels Tnfaip2, Mean of APC: 0.9923
Figure 6d, white fat (WF) tissue of DIO mice, group mean, Mean of VEH 1.009
  mRNA levels Pgc-1a, Mean of APC: 0.704
Figure 6d, white fat (WF) tissue of DIO mice, group mean, Mean of VEH 1.017
  mRNA levels Srebf-2, Mean of APC: 0.6488
Figure 6d, white fat (WF) tissue of DIO mice, group mean, Mean of VEH 1.018
  mRNA levels Acc, Mean of APC: 0.5342
Figure 6d, white fat (WF) tissue of DIO mice, group mean, Mean of VEH 1.022
  mRNA levels Scd1, Mean of APC: 0.5423
Figure 6d, white fat (WF) tissue of DIO mice, group mean, Mean of VEH 1.036
  mRNA levels Fasn, Mean of APC: 0.5535
Figure 6d, white fat (WF) tissue of DIO mice, group mean, Mean of VEH 1.041
  mRNA levels Mgll, Mean of APC: 0.6295
Figure 6d, white fat (WF) tissue of DIO mice, group mean, Mean of VEH 1.044
  mRNA levels Retn, Mean of APC: 0.3139
Figure 6d, white fat (WF) tissue of DIO mice, group mean, Mean of VEH 1.054
  mRNA levels Glut4, Mean of APC: 0.2982
Figure 6d, white fat (WF) tissue of DIO mice, group mean, Mean of VEH 1.057
  mRNA levels Atgl, Mean of APC: 1.332
Figure 6d, white fat (WF) tissue of DIO mice, group mean, Mean of VEH 1.069
  mRNA levels Hsl, Mean of APC: 1.68
Figure 6d, white fat (WF) tissue of DIO mice, group mean, Mean of VEH 1.114
  mRNA levels Lpl, Mean of APC: 0.6106
Figure 6d, white fat (WF) tissue of DIO mice, group mean, Mean of VEH 1.126
  mRNA levels Pgc-1b, Mean of APC: 0.666
[6]
  mRNA levels Acc: 0.5239 and 0.3917 and 0.6963 and 0.6783 and 0.5952 and 0.3196
  mRNA levels Acsl1: 0.4459 and 0.1537 and 0.5539 and 0.2927 and 0.6116 and 0.5696
  mRNA levels ApoB: 0.3337 and 0.2599 and 0.6345 and 0.1702 and 0.408 and 0.3527
  mRNA levels Atgl: 1.322 and 1.233 and 1.718 and 1.2249 and 1.301 and 1.192
  mRNA levels Cebpa: 1.279 and 0.9809 and 1.111 and 1.353 and 1.154 and 0.8979
  mRNA levels Cpt1: 1.627 and 1.184 and 1.402 and 2.24 and 1.4196 and 1.345
  mRNA levels Creb: 1.411 and 1.393 and 1.026 and 0.3555 and 0.9743 and 0.8802
  mRNA levels Fasn: 0.5104 and 0.4062 and 0.9888 and 0.3127 and 0.6571 and 0.4456
  mRNA levels Glut4: 0.4697 and 0.1331 and 0.1991 and 0.1942 and 0.3683 and 0.4245
  mRNA levels Hsl: 2.303 and 1.694 and 1.5898 and 1.21 and 1.869 and 1.4146
  mRNA levels Lpl: 0.6557 and 0.743 and 0.6544 and 0.3781 and 0.733 and 0.4994
  mRNA levels Lxra: 0.7883 and 0.7167 and 0.4804 and 0.6732 and 0.7502 and 0.6457
  mRNA levels Mgll: 0.5524 and 0.27 and 0.8642 and 0.6156 and 0.9323 and 0.5423
  mRNA levels Pgc-1a: 0.5315 and 0.7402 and 0.6723 and 0.7798 and 0.8847 and 0.6158
  mRNA levels Pgc-1b: 0.683 and 0.7869 and 0.6257 and 0.4165 and 0.7943 and 0.6894
  mRNA levels Ppargamma: 1.1637 and 0.8189 and 1.303 and 0.8539 and 0.722 and 0.9079
